Measured values: the supplement of paper PMC10307832

How the values were obtained:
Experiment in all cases: relative viability (nuclei count vs DMSO), 5 days (fraction); higher = more cells survive
GSK-J4 + Pemetrexed = compound: CCOC(=O)CCNc1cc(N2CCc3ccccc3CC2)nc(-c2ccccn2)n1 [GSK-J4] + Nc1nc2[nH]cc(CCc3ccc(C(=O)N[C@@H](CCC(=O)O)C(=O)O)cc3)c2c(=O)[nH]1 [Pemetrexed] (partner 0.2 µM)
Outline: (§1)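 Five library-drug doses in √10 steps were combined with a fixed anchor-drug dose, or a single drug was given alone, by pin tool to lung cancer cell lines in 1536-well plates the day after seeding. Nuclei were stained and counted after 5 days. Relative viability is the nuclei count in treated wells over that in vehicle wells, taken as the median of duplicate plates.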

GSK-J4 + Palbociclib = compound: CCOC(=O)CCNc1cc(N2CCc3ccccc3CC2)nc(-c2ccccn2)n1 [GSK-J4] + CC(=O)c1c(C)c2cnc(Nc3ccc(N4CCNCC4)cn3)nc2n(C2CCCC2)c1=O [Palbociclib] (partner 0.5 µM)
Outline: as §1

AZ3146 + Decitabine = compound: CN1CCC(CC1)OC2=CC(=C(C=C2)NC3=NC=C4C(=N3)N(C(=O)N4C)C5CCCC5)OC [AZ3146] + Nc1ncn([C@H]2C[C@H](O)[C@@H](CO)O2)c(=O)n1 [Decitabine] (partner 2 µM)
Outline: as §1

AZ3146 + Alpelisib = compound: CN1CCC(CC1)OC2=CC(=C(C=C2)NC3=NC=C4C(=N3)N(C(=O)N4C)C5CCCC5)OC [AZ3146] + Cc1nc(NC(=O)N2CCC[C@H]2C(N)=O)sc1-c1ccnc(C(C)(C)C(F)(F)F)c1 [Alpelisib] (partner 2 µM)
Outline: as §1

Cell Line | relative viability (GSK-J4 + Pemetrexed; first compound 0.5 µM) | relative viability (GSK-J4 + Pemetrexed; first compound 1.581 µM) | relative viability (GSK-J4 + Pemetrexed; first compound 5 µM) | relative viability (GSK-J4 + Pemetrexed; first compound 15.81 µM) | relative viability (GSK-J4 + Pemetrexed; first compound 50 µM) | relative viability (GSK-J4 + Palbociclib; first compound 0.5 µM) | relative viability (GSK-J4 + Palbociclib; first compound 1.581 µM) | relative viability (GSK-J4 + Palbociclib; first compound 5 µM) | relative viability (GSK-J4 + Palbociclib; first compound 15.81 µM) | relative viability (GSK-J4 + Palbociclib; first compound 50 µM) | relative viability (AZ3146 + Decitabine; first compound 0.08 µM) | relative viability (AZ3146 + Decitabine; first compound 0.253 µM) | relative viability (AZ3146 + Decitabine; first compound 0.8 µM) | relative viability (AZ3146 + Decitabine; first compound 2.53 µM) | relative viability (AZ3146 + Decitabine; first compound 8 µM) | relative viability (AZ3146 + Alpelisib; first compound 0.08 µM) | relative viability (AZ3146 + Alpelisib; first compound 0.253 µM) | relative viability (AZ3146 + Alpelisib; first compound 0.8 µM) | relative viability (AZ3146 + Alpelisib; first compound 2.53 µM) | relative viability (AZ3146 + Alpelisib; first compound 8 µM)
NCI-H2009 | 0.964 | 0.846 | 0.769 | 0.997 | 0.576 | 0.242 | 0.166 | 0.223 | 0.216 | 0.202 | 0.372 | 0.333 | 0.41 | 0.417 | 0.328 | 1.1 | 1.17 | 1.19 | 1.24 | 1.05
COR-L 105 | 0.826 | – | 1.12 | 1.09 | 0.937 | 0.428 | – | 0.342 | 0.415 | 0.396 | 0.647 | 0.55 | 0.632 | 0.622 | 0.549 | 1.01 | 1.15 | 0.86 | 1.1 | 0.665
HCC-827 | 0.248 | 0.26 | 0.258 | 0.229 | 0.285 | 0.539 | 0.46 | 0.543 | 0.431 | 0.411 | 0.308 | 0.364 | 0.31 | 0.3 | 0.347 | 1.02 | 0.976 | 1.08 | 0.921 | 0.968
EMC-BAC-2 | 0.414 | 0.362 | – | 0.441 | 0.477 | 0.505 | 0.474 | – | 0.465 | 0.471 | – | – | 1.09 | 1.02 | 0.907 | 0.718 | 0.718 | 0.768 | 0.743 | 0.84
NCI-H1703 | – | – | – | – | – | – | – | – | – | – | – | – | – | – | – | 0.374 | 0.34 | 0.326 | 0.437 | 0.29
NCI-H2170 | 0.237 | 0.292 | 0.243 | 0.252 | 0.273 | 0.372 | 0.393 | 0.392 | 0.311 | 0.378 | 0.441 | 0.477 | 0.461 | 0.421 | 0.466 | 0.72 | 0.767 | 0.82 | 0.794 | 0.733
NCI-H1755 | 0.4 | 0.349 | 0.398 | 0.388 | 0.365 | 0.43 | 0.336 | 0.456 | 0.447 | 0.408 | 0.68 | 0.716 | 0.739 | 0.842 | 0.839 | 0.919 | 0.989 | 0.848 | 0.953 | 0.917
ChaGo-K-1 | 0.259 | – | 0.247 | 0.259 | 0.266 | 0.934 | – | 0.967 | 0.889 | 0.845 | 0.509 | 0.502 | 0.509 | 0.531 | 0.501 | – | – | – | – | –
EKVX | 0.351 | – | 0.426 | 0.418 | 0.315 | 0.352 | – | 0.365 | 0.352 | 0.344 | 0.285 | 0.304 | 0.381 | 0.319 | 0.286 | 0.865 | 0.802 | 0.716 | 0.981 | 1
HCC-78 | 0.916 | 0.841 | 0.929 | 0.957 | 0.929 | 0.498 | – | 0.48 | 0.435 | 0.486 | – | 0.746 | 0.623 | 0.744 | 0.728 | – | 0.268 | 0.224 | 0.367 | 0.321
A-427 | 0.932 | 0.654 | – | 0.883 | 0.463 | 0.507 | 0.439 | – | 0.511 | 0.443 | 0.511 | 0.529 | 0.528 | 0.56 | 0.401 | 1.04 | 1.06 | 1.01 | 0.93 | 1.02
NCI-H3122 | 0.205 | 0.201 | 0.201 | 0.206 | 0.19 | 0.18 | 0.2 | 0.181 | 0.177 | 0.191 | 0.475 | 0.44 | 0.42 | 0.426 | 0.514 | 0.68 | 0.683 | 0.702 | 0.872 | 0.775
NCI-H1563 | 0.738 | 1.26 | 0.717 | 0.698 | 0.76 | – | – | – | – | – | – | – | – | – | – | 0.924 | 0.87 | 1 | 0.927 | 0.882
SK-MES-1 | 0.836 | 0.878 | 0.882 | 0.808 | 0.508 | 0.314 | 0.29 | 0.319 | 0.283 | 0.313 | 0.364 | 0.397 | 0.359 | 0.477 | 0.344 | 0.785 | 0.93 | 0.866 | 0.836 | 0.932
SW 1573 | 0.81 | 0.804 | 0.768 | 0.756 | 0.375 | 0.38 | 0.336 | 0.347 | 0.382 | 0.237 | 0.509 | 0.605 | 0.542 | 0.397 | 0.162 | 0.843 | 0.762 | 0.762 | 0.894 | 0.757
NCI-H2347 | 0.417 | 0.411 | 0.378 | 0.394 | 0.442 | 0.448 | 0.374 | 0.411 | 0.436 | 0.419 | 0.588 | 0.67 | 0.593 | 0.601 | 0.631 | 0.944 | 1.01 | 0.708 | 1.1 | 1.04
LC-2-ad | 0.288 | 0.281 | 0.247 | 0.267 | 0.272 | 0.438 | 0.404 | 0.447 | 0.49 | 0.47 | 0.729 | 0.783 | 0.728 | 0.781 | 0.716 | 0.793 | 0.797 | 0.866 | 0.956 | 0.792
HCC-15 | 0.225 | 0.225 | 0.217 | 0.209 | 0.245 | 0.712 | 0.528 | 0.701 | 0.694 | 0.488 | 0.529 | 0.59 | 0.642 | 0.678 | 0.39 | 0.939 | 0.899 | 0.864 | 0.822 | 0.893
